Test [1] addresses 3',5'-cyclic-AMP phosphodiesterase 4D (Homo sapiens, UniProt Q08499). Put plainly: Inhibition of recombinant PDE4D2 (unknown origin) expressed in Sf9 cells pre-incubated with compound for 15 mins before incubation with cAMP substrate for 1 hr.
Test [2] deals with RAW264.7. Kind of test: Inhibition of LPS-induced TNFalpha production in mouse RAW264.7 cells pre-incubated with compound for 30 mins before LPS challenge by ELISA. The class given is functional, cell-based.
In test [3] the target is T1, 3',5'-cyclic-AMP phosphodiesterase 4B (Homo sapiens, UniProt Q07343). Kind of test: Inhibition of recombinant PDE4B1 (unknown origin) expressed in Sf9 cells pre-incubated with compound for 15 mins before incubation with cAMP substrate for 1 hr.
Test [4] addresses T1, 3',5'-cyclic-AMP phosphodiesterase 4B. Kind of test: Inhibition of recombinant PDE4B1 (unknown origin) expressed in Sf9 cells at 30 uM pre-incubated with compound for 15 mins before incubation with cAMP substrate for 1 hr.

T1 sequence (Q07343 whole entry): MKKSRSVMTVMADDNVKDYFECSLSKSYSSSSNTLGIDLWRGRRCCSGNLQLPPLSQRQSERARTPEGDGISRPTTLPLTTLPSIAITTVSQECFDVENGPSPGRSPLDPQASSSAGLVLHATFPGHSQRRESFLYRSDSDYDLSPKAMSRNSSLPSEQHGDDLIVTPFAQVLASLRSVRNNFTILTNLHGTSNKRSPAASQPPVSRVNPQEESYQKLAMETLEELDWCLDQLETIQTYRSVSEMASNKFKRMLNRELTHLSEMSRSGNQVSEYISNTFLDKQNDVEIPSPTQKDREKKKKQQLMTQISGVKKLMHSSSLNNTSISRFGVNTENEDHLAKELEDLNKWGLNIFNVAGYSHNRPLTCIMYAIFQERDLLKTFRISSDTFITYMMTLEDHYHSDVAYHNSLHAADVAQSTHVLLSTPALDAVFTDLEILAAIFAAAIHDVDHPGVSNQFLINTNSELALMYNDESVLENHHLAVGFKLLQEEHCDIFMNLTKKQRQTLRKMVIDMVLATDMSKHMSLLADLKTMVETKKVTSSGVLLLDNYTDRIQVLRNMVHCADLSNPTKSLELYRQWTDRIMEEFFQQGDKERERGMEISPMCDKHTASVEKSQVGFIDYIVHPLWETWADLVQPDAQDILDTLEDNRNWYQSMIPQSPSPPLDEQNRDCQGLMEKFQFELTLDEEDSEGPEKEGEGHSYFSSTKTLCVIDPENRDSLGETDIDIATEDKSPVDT
Sequence of 3',5'-cyclic-AMP phosphodiesterase 4D (Q08499 whole entry): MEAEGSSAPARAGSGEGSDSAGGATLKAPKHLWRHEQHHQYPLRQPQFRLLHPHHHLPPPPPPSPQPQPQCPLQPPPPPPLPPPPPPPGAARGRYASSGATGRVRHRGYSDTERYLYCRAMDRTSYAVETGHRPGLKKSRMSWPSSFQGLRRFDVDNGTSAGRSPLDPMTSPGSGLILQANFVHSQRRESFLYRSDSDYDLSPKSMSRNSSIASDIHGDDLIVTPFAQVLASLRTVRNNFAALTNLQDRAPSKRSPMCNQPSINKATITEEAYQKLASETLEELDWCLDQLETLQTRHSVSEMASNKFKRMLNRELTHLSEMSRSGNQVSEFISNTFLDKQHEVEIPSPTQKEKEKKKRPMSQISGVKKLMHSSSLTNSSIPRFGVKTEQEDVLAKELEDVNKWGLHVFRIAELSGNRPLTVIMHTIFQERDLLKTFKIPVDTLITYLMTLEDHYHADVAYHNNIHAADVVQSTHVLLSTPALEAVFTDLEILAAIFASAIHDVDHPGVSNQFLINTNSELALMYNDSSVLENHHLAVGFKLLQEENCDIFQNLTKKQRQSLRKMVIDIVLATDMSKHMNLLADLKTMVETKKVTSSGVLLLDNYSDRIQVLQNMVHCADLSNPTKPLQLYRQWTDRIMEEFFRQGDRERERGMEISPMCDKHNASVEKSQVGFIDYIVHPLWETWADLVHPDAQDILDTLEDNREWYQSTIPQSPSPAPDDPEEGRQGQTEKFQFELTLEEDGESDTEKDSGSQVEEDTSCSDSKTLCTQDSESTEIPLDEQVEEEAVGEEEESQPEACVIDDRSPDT

On to `CCOC(=O)C1=CN(Cc2ccc(OC)c(OC)c2)C=C(C(=O)OCC)C1c1c[nH]c2ccccc12`, for which the IC50 in test [1] was 0.65 µM; in test [2] it was 3.2 µM; in test [3] it was 0.54 µM. In test [4], the inhibition amounted to 95%.

With `CCCCCCCCCCCCCCCCN1C=C(C(=O)OCC)C(c2ccc(OC)cc2)C(C(=O)OCC)=C1`, the inhibition in test [4] amounted to 17%.

As to `CCOC(=O)C1=CN(Cc2ccccc2Cl)C=C(C(=O)OCC)C1c1ccc(OC)cc1`, the inhibition in test [4] is 58%.

Consider `CCOC(=O)C1=CN(Cc2ccc(C(F)(F)F)cc2)C=C(C(=O)OCC)C1c1ccc(O)cc1`, for which the inhibition in test [4] came to 35%.

Take `CCOC(=O)C1=CN(CC2CCCCC2)C=C(C(=O)OCC)C1c1ccc(Cl)cc1`: the inhibition in test [4] worked out at 28%.

For the compound `CCOC(=O)C1=CN(c2ccccc2)C=C(C(=O)OCC)C1c1ccc(Cl)cc1`, the inhibition in test [4] came to 30.5%.

`CCOC(=O)C1=CN(c2ccc(Cl)cc2)C=C(C(=O)OCC)C1c1ccc(Cl)cc1`: the inhibition in test [4] worked out at 23%.

For the compound `CCOC(=O)C1=CN(c2ccc(Cl)cc2)C=C(C(=O)OCC)C1Cc1ccccc1`, the inhibition in test [4] is 57.5%.

For the compound `CCOC(=O)C1=CN(Cc2cccc(Cl)c2)C=C(C(=O)OCC)C1Cc1ccccc1`, in test [4], the inhibition was found to be 31%.

For `CCOC(=O)C1=CN(Cc2ccc(Cl)cc2)C=C(C(=O)OCC)C1c1ccc(Cl)cc1`, in test [4], the inhibition came to 15%.

Turning to `CCOC(=O)C1=CN(Cc2ccc(OC)cc2)C=C(C(=O)OCC)C1c1cccc(F)c1`, the inhibition in test [4] came to 28%.

With `CCOC(=O)C1=CN(Cc2ccc(OC)c(OC)c2)C=C(C(=O)OCC)C1c1cccc2ccccc12`, the inhibition in test [4] was found to be 75%.

On to `CCOC(=O)C1=CN(Cc2ccc(C(F)(F)F)cc2)C=C(C(=O)OCC)C1c1ccc(OC)cc1`, for which the inhibition in test [4] was 21%.

For the compound `CCOC(=O)C1=CN(Cc2ccc(OC)cc2)C=C(C(=O)OCC)C1c1ccc(Cl)cc1`, in test [4], the inhibition amounted to 23%.

Take `CCOC(=O)C1=CN(Cc2ccc3c(c2)OCO3)C=C(C(=O)OCC)C1c1ccc(OC)cc1`: the inhibition in test [4] turned out to be 42%.

Consider `CCOC(=O)C1=CN(Cc2ccc(OC)c(OC)c2)C=C(C(=O)OCC)C1c1cccc([N+](=O)[O-])c1`, for which the values for the IC50 in test [1] and in test [3] were 2.89 µM and 1.57 µM, respectively. In addition, the inhibition in test [4] is 88%.

With `C=CCN1C=C(C(=O)OCC)C(c2ccc(O)cc2)C(C(=O)OCC)=C1`, the inhibition in test [4] is 51.5%.

As to `CCOC(=O)C1=CN(Cc2ccc(OC)cc2)C=C(C(=O)OCC)C1c1ccc([N+](=O)[O-])cc1`, the inhibition in test [4] stood at 38%.

In the case of `CCOC(=O)C1=CN(Cc2ccc3c(c2)OCO3)C=C(C(=O)OCC)C1c1ccc(O)cc1`, the inhibition in test [4] was determined as 72%.

For `CCOC(=O)C1=CN(Cc2ccccc2Cl)C=C(C(=O)OCC)C1c1ccccc1`, in test [4], the inhibition is 33%.

On to `CCOC(=O)C1=CN(Cc2ccc(OC)c(OC)c2)C=C(C(=O)OCC)C1c1ccc(Cl)cc1`, for which the IC50 in test [1] came to 2.78 µM; in test [3], 3.71 µM. Besides, the inhibition in test [4] amounted to 80%.

Consider `CCOC(=O)C1=CN(Cc2ccccc2Cl)C=C(C(=O)OCC)C1c1ccc(O)cc1`, for which the inhibition in test [4] stood at 49%.

For `CCOC(=O)C1=CN(Cc2ccc(OC)c(OC)c2)C=C(C(=O)OCC)C1Cc1ccccc1`, in test [4], the inhibition worked out at 79%.

Regarding `CCCCCCCCN1C=C(C(=O)OCC)C(c2ccc(OC)cc2)C(C(=O)OCC)=C1`, in test [4], the inhibition came to 25%.

For `CCOC(=O)C1=CN(Cc2ccc(OC)c(OC)c2)C=C(C(=O)OCC)C1c1cccc(Cl)c1`, in test [4], the inhibition came to 78%.

As for `C=CCN1C=C(C(=O)OCC)C(c2ccc(Cl)cc2)C(C(=O)OCC)=C1`, in test [4], the inhibition is 49.5%.

On to `CCOC(=O)C1=CN(c2ccc(OC)cc2)C=C(C(=O)OCC)C1c1ccc(Cl)cc1`, for which the inhibition in test [4] was 33%.

Take `CCOC(=O)C1=CN(Cc2ccccc2OC)C=C(C(=O)OCC)C1C1CC1`: the inhibition in test [4] is 48%.

As to `CCOC(=O)C1=CN(Cc2ccc(Cl)cc2)C=C(C(=O)OCC)C1c1cccc(F)c1`, the inhibition in test [4] is 8%.

In general, IC50 refers to the concentration that inhibits the measured activity by half. The term inhibition denotes the relative decrease from the control value, in per cent.

The values are drawn from ChEMBL document CHEMBL2311319, “Discovery of novel 1,4-dihydropyridine-based PDE4 inhibitors” (Bioorg Med Chem Lett, 2013).
